This note sets out measurements from patent publication US20240190862A1 (AMGEN INC., priority 2019, published 2024).

The target of one data set is GDP-KRAS G12D (Homo sapiens, UniProt P01116, C118A/G12D). Nature of the data set: GDP-KRAS G12D RF-MS Assay. To be noted: 100 μM inhibitor, 20 h incubation, 2 uM KRAS G12D. Format: binding. The procedure: GDP-KRAS G12D RF-MS Assay: MS assays were performed in the following buffer: 25 mM HEPES pH 7.4, 20 mM MgCl2, 10 mM NaCl, 3% DMSO, 0.0005% CHAPS with 100 μM GDP made fresh and added to the assay buffer. The final concentration of KRAS G12D was 2 uM. Assay incubation times were 20 h and the inhibitor concentration was 100 μM. Greiner polypropylene clear V-bottom plates were used for the mass spectrometry assays. Typically, the reaction was initiated by addition of KRAS G12D to a well containing inhibitor followed by Rapidfire MS analysis. Relative % Bound values at the various incubation times were used to estimate a kobs value at 100 uM inhibitor.
RapidFire Sample Liquid handling System: The RapidFire liquid handling unit used was the RF 360 model. Solvents were delivered by Agilent 1260 Infinity pumps. The instrument control software was the Agilent RapidFire High Throughput MS-system software (v4.0.12333.14274). A single C4 Type A (Agilent technologies, G9203) SPE-cartridge was used for these experiments. A volume of 10 μL (sample loop determined) was removed from each well of a 384-well plate by using an aspiration time of 300 ms. The sample load/wash time was 6000 ms at a flow rate of 1.25 mL/min (H2O, 0.1% v/v formic acid, 0.05% v/v trifluoroacetic acid); elution time was 7000 ms (acetonitrile, 0.1% v/v formic acid, 0.05% v/v trifluoroacetic acid); re-equilibration time was 700 ms at a flow rate of 1.25 mL/min (H2O, 0.1% v/v formic acid, 0.05% v/v trifluoroacetic acid).
Mass Spectrometry: Mass spectrometric data was acquired on an Agilent 6530 quadrupole time-of-flight (ToF) MS system, operated with a dual Agilent Jet Spray (AJS) ion source, in positive ionization mode. The instrument parameters were as follows: gas temperature 350° C.; drying gas 5 L/min; nebulizer 60 psi; sheath gas 350° C.; sheath gas flow 11 L/min; capillary 3.5 kV (0.037 μA); nozzle 1.75 kV; fragmentor 200 V; skimmer 75 V; octapole RF 800 V peak-to-peak. Data was acquired at the rate of 5 spectra/s. The mass scale was calibrated using the Agilent positive ion tune mix, over the m/z range 300-3200. The instrument control software was Agilent MassHunter Workstation Data Acquisition (vB.05.01).
Mass Spectrometry Data Processing and Informatics: All data processing was performed using a HP Z620, 64-bit, 12-processor, Windows 7 PC, using a combination of Agilent MassHunter Qualitative Analysis (B.05.00) Agilent RapidFire control software (v4.0.12333.14070) and the Agilent DA Reprocessor Offline Utilities B.05.00, Build 162. The SPE-MS data acquired from the RapidFire-MS system is typically a single SPE-MS data file composed of multiple injection events. For effective charge state extraction, SPE-peak integration and subsequent MS-spectral deconvolution, the single SPE-MS data file is split into single injection events. This is typically performed off-line and achieved through the RapidFire User Interface software, using the Agilent RapidFire control software (v4.0.12333.14070) using the Convert MS Data option. Once the individual injection-event MS-data files have been produced, they are all batch processed using the DA Reprocessor Offline Utilities (B.05.00, Build 162, Agilent). For batch processing a method file was created using Agilent MassHunter Qualitative Analysis B.05.00. The details of this method file are contained within the BioConfirm Workflow and are as follows: Integrate (MS), Integrator Selection: General, smooth option selected; detector point sampling 1; start threshold 5.0; stop threshold 0.0; filtering 5 point; peak location, top. Extract (MS): Peak Spectrum Extraction (MS) within m/z 800-1400. Deconvolute (MS) Maximum Entropy: mass range 19,000-21,000 Daltons; Mass step 1.0 Da; S/N threshold 20.0; Use limited m/z range 800-1400; adduct proton; isotope peak width automatic; minimum consecutive charge states 5. […]

Data set [1] deals with GDP-bound KRAS protein (aa 1-169) G12D/C118A (Homo sapiens (Human), UniProt P01116, C118A/G12D). As to the kind of experiment: Coupled Nucleotide Exchange Assay (KRAS G12D). The following applies: 20 h compound pre-incubation; read-out: GDP KRAS G12D 20 h Coupled Exchange IC50 IP. Format: biochemical. The procedure:
(§1) Coupled Nucleotide Exchange Assay: Purified GDP-bound KRAS protein (aa 1-169), containing either G12C or G12D, as well as C118A amino acid substitutions and an N-terminal His-tag, was pre-incubated in assay buffer (25 mM HEPES pH 7.4, 10 mM MgCl2, and 0.01% Triton X-100) with a compound dose-response titration for either 5 min or 20 hours (see Table 15). Following compound pre-incubation, purified SOS protein (aa 564-1049) and GTP (Roche 10106399001) were added to the assay wells and incubated for an additional 30 min. To determine the extent of inhibition of SOS-mediated nucleotide exchange, purified GST-tagged cRAF (aa 1-149), nickel chelate AlphaLISA acceptor beads (PerkinElmer AL108R), and AlphaScreen glutathione donor beads (PerkinElmer 6765302) were added to the assay wells and incubated for 10 minutes. The assay plates were then read on a PerkinElmer EnVision Multilabel Reader, using AlphaScreen® technology, and data were analyzed using a 4-parameter logistic model to calculate IC50 values.

Data set [2] concerns the target GDP-bound KRAS protein (aa 1-169) G12C/C118A (Homo sapiens (Human), UniProt P01116, C118A/G12C). Nature of the data set: Coupled Nucleotide Exchange Assay (KRAS G12C). Format: biochemical. How it is done: as §1
The mark [3] stands for this setting: 5 min compound pre-incubation, read-out: GDP KRAS G12C 5 min Coupled Exchange IC50 IP.
[4] abbreviates: 20 h compound pre-incubation, read-out: GDP KRAS G12C 20 h Coupled Exchange IC50 IP.

Structures are written as SMILES. Read-outs that look alike come from different tables or passages of the source.

Chain of GDP-bound KRAS protein (aa 1-169) G12D/C118A (P01116 other isoform, or with tags, fused parts or gaps G12D/C118A): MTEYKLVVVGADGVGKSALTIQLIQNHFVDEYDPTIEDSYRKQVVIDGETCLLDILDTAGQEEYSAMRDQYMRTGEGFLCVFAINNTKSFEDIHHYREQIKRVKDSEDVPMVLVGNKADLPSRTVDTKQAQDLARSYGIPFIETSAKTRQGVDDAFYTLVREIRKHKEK
Chain of GDP-bound KRAS protein (aa 1-169) G12C/C118A (P01116 other isoform, or with tags, fused parts or gaps G12C/C118A): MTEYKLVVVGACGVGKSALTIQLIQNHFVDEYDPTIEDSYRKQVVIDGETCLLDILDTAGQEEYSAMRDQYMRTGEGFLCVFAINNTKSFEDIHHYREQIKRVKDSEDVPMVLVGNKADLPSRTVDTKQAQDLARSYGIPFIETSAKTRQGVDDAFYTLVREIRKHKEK

Regarding `Cc1ccnc(C(C)C)c1-n1c(=O)nc(N2CCN(C(=O)[C@H]3CO3)C[C@@H]2C)c2cc(Cl)c(-c3ccccc3F)nc21` (atropisomer, axis not shown) [Example 16, 6-Chloro-7-(2-fluorophenyl)-1-(2-isopropyl-4-methylpyridin-3-yl)-4-((S)-2-methyl-4-((R)-oxirane-2-carbonyl)piperazin-1-yl)pyrido[2,3-d]pyrimidin-2(1H)-one], the “GDP-KRAS G12D RF-MS 100 μM 20 h Relative % Bound” value at GDP-KRAS G12D is listed as 3.4%. Besides, the IC50 in data set [1] is 190 µM; in data set [2] (setting [3]) it was 3.78 µM; in data set [2] (setting [4]), 0.027 µM.

For the compound `Cc1ccnc(C(C)C)c1-n1c(=O)nc(N(C)C2CN(C(=O)[C@H]3CO3)C2)c2cc(Cl)c(-c3ccccc3F)nc21` [Example 30, (R)-6-chloro-7-(2-fluorophenyl)-1-(2-isopropyl-4-methylpyridin-3-yl)-4-(methyl(1-(oxirane-2-carbonyl)azetidin-3-yl)amino)pyrido[2,3-d]pyrimidin-2(1H)-one], on GDP-KRAS G12D, the “GDP-KRAS G12D RF-MS 100 μM 20 h Relative % Bound” value was determined as 1.4%. For the same compound, the IC50 in data set [1] is above 250 µM; in data set [2] (setting [3]), above 250 µM; in data set [2] (setting [4]), above 31.3 µM.

Take `Cc1ccnc(C(C)C)c1-n1c(=O)nc(NC2CN(C(=O)C3CO3)C2)c2cc(Cl)c(-c3ccccc3F)nc21` (stereo not drawn) [Example 31, 6-Chloro-7-(2-fluorophenyl)-1-(2-isopropyl-4-methylpyridin-3-yl)-4-((1-(oxirane-2-carbonyl)azetidin-3-yl)amino)pyrido[2,3-d]pyrimidin-2(1H)-one]: the “GDP-KRAS G12D RF-MS 100 μM 20 h Relative % Bound” value on GDP-KRAS G12D is 2.2%. For the same compound, the IC50 in data set [1] was above 250 µM; in data set [2] (setting [3]), 146 µM; in data set [2] (setting [4]), 1.57 µM.

Regarding `Cc1ccnc(C(C)C)c1-n1c(=O)nc(N[C@@H]2CCN(C(=O)C3CO3)C2)c2cc(Cl)c(-c3ccccc3F)nc21` (stereo partly drawn) [Example 32, 6-Chloro-7-(2-fluorophenyl)-1-(2-isopropyl-4-methylpyridin-3-yl)-4-(((3R)-1-(oxirane-2-carbonyl)pyrrolidin-3-yl)amino)pyrido[2,3-d]pyrimidin-2(1H)-one], the “GDP-KRAS G12D RF-MS 100 μM 20 h Relative % Bound” value on GDP-KRAS G12D stood at 3.1%. In addition, the IC50 in data set [1] is above 250 µM; in data set [2] (setting [3]), 101 µM; in data set [2] (setting [4]) it was 1.85 µM.

Regarding `Cc1ccnc(C(C)C)c1-n1c(=O)nc(N2CCCC3C2CN3C(=O)C2CO2)c2cc(Cl)c(-c3ccccc3F)nc21` (stereo not drawn) [Example 33, 6-Chloro-7-(2-fluorophenyl)-1-(2-isopropyl-4-methylpyridin-3-yl)-4-(7-(oxirane-2-carbonyl)-2,7-diazabicyclo[4.2.0]octan-2-yl)pyrido[2,3-d]pyrimidin-2(1H)-one], at GDP-KRAS G12D, the “GDP-KRAS G12D RF-MS 100 μM 20 h Relative % Bound” value amounted to 2%. The IC50 in data set [1] was above 250 µM; in data set [2] (setting [3]), 60.9 µM; in data set [2] (setting [4]), 0.261 µM.

`Cc1ccnc(C(C)C)c1-n1c(=O)nc(N2CCC[C@H](NC(=O)C3CO3)C2)c2cc(Cl)c(-c3ccccc3F)nc21` (stereo partly drawn) [Example 34, N—((S)-1-(6-Chloro-7-(2-fluorophenyl)-1-(2-isopropyl-4-methylpyridin-3-yl)-2-oxo-1,2-dihydropyrido[2,3-d]pyrimidin-4-yl)piperidin-3-yl)oxirane-2-carboxamide]: on GDP-KRAS G12D, the “GDP-KRAS G12D RF-MS 100 μM 20 h Relative % Bound” value turned out to be 2.9%. The IC50 in data set [1], in data set [2] (setting [3]) and in data set [2] (setting [4]) was above 250 µM each time.

For the compound `Cc1ccnc(C(C)C)c1-n1c(=O)nc(N2CC[C@H](NC(=O)C3CO3)C2)c2cc(Cl)c(-c3ccccc3F)nc21` (stereo partly drawn) [Example 35, N—((S)-1-(6-chloro-7-(2-fluorophenyl)-1-(2-isopropyl-4-methylpyridin-3-yl)-2-oxo-1,2-dihydropyrido[2,3-d]pyrimidin-4-yl)pyrrolidin-3-yl)oxirane-2-carboxamide], at GDP-KRAS G12D, the “GDP-KRAS G12D RF-MS 100 μM 20 h Relative % Bound” value was found to be 3.4%. Moreover, the IC50 in data set [1] was above 250 µM; in data set [2] (setting [3]) it was 167 µM; in data set [2] (setting [4]) it was 1.36 µM.

As for `Cc1ccnc(C(C)C)c1-n1c(=O)nc(N2C[C@@H](C)N(C(=O)[C@H]3CO3)C[C@@H]2C)c2cc(Cl)c(-c3c(O)cccc3F)nc21` [Example 36, 6-Chloro-4-((2S,5R)-2,5-dimethyl-4-((R)-oxirane-2-carbonyl)piperazin-1-yl)-7-(2-fluoro-6-hydroxyphenyl)-1-(2-isopropyl-4-methylpyridin-3-yl)pyrido[2,3-d]pyrimidin-2(1H)-one], at GDP-KRAS G12D, the “GDP-KRAS G12D RF-MS 100 μM 20 h Relative % Bound” value amounted to 8.1%. The values for the IC50 in data set [1], in data set [2] (setting [3]) and in data set [2] (setting [4]) were above 250 µM, 0.653 µM and 0.024 µM, respectively.

`Cc1ccnc(C(C)C)c1-n1c(=O)nc(N2C[C@@H](C)N(C(=O)[C@H]3CO3)C[C@@H]2C)c2cc(Cl)c(-c3c(N)cccc3F)nc21` [Example 37, 7-(2-Amino-6-fluorophenyl)-6-chloro-4-((2S,5R)-2,5-dimethyl-4-((R)-oxirane-2-carbonyl)piperazin-1-yl)-1-(2-isopropyl-4-methylpyridin-3-yl)pyrido[2,3-d]pyrimidin-2(1H)-one]: at GDP-KRAS G12D, the “GDP-KRAS G12D RF-MS 100 μM 20 h Relative % Bound” value is on record as 15.8%. Also, the figures for the IC50 in data set [1], in data set [2] (setting [3]) and in data set [2] (setting [4]) were above 250 µM, 0.56 µM and 0.015 µM, respectively.
